The subject of this assay is PANC-1 (human pancreatic cancer-derived cell line). Nature of the assay: MTS assay on Panc-1 (human pancreas carcinoma cell line). In kind it is cell-based. The following applies: 144 h; for IC50: PANC-1, MTS method, cell survival 6 days after exposure, 4-parameter logistic fit; for inhibition at 10 µM: read-out: Growth inhibition (%) 10 μM; for inhibition at 2.5 µM: read-out: Growth inhibition (%) 2.5 μM; for inhibition at 0.3125 µM: read-out: Growth inhibition (%) 0.3125 μM. The method, boiled down:
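Viability measured by MTS 6 days after treating human pancreatic carcinoma PANC-1 cells with compound serially diluted 2-fold in DMSO; absorbance 492–630 nm normalized to solvent control. Triplicate measurements averaged and fitted to a 4-parameter logistic curve.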
(In general: Tetrazolium dyes change colour on reduction, which living cells bring about.)

As a reminder, the IC50 is the point on the concentration scale where inhibition reaches its midpoint. Higher therefore signals lower potency. What is called inhibition is the share of the control response that was lost under treatment.

Turning to `CN1CCC(N2C[C@@H]3N(C(=O)/C=C/c4nc5ccccc5s4)c4ccc(F)cc4C(=O)N3[C@@H](CCCCN(C)C3CCN(C(=O)OC(C)(C)C)CC3)C2=O)CC1` [ID-59, tert-butyl 4-((4-((4S,11aS)-11-((E)-3-(benzo[d]thiazol-2-yl)acryloyl)-8-fluoro-2-(1-methylpiperidin-4-yl)-3,6-dioxo-1,3,4,6,11,11a-hexahydro-2H-pyrazino[2,1-b]quinazolin-4-yl)butyl) (methyl)amino)piperidine-1-carboxylate], the half-maximal inhibitory concentration (IC50) was 550 nM. Besides, for the setting “PANC-1, MTS, 6 days, 1 μM, read-out: Growth inhibition (%) 1 μM”, the inhibition at 1 µM was found to be 98.8%.

Turning to `CSCC[C@H]1C(=O)N(C2CCN(C)CC2)C[C@@H]2N(C(=O)/C=C/c3nc4ccccc4s3)O[C@H](CC(C)C)C(=O)N21` [ID-60, (3R,6S,9aS)-1-((E)-3-(benzo[d]thiazol-2-yl)acryloyl)-3-isobutyl-8-(1-methylpiperidin-4-yl)-6-(2-(methylthio)ethyl)tetrahydropyrazino[2,1-c][1,2,4]oxadiazine-4,7(3H,6H)-dione], the IC50 was 270 nM. The inhibition at 10 µM (PANC-1, MTS, 6 days) was 93.7%. Take `CC(C)C[C@H]1ON(C(=O)/C=C/c2ccccn2)[C@H]2CN(C3CCN(C)CC3)C(=O)[C@H](Cc3ccc(O)cc3)N2C1=O` [ID-61, (3R,6S,9aS)-6-(4-hydroxybenzyl)-3-isobutyl-8-(1-methylpiperidin-4-yl)-1-((E)-3-(pyridin-2-yl)acryloyl)tetrahydropyrazino[2,1-c][1,2,4]oxadiazine-4,7(3H,6H)-dione]: half-maximal inhibition (IC50) required 7300 nM. With `CC(C)C[C@H]1ON(C(=O)/C=C/c2ccccn2)[C@H]2CN(C3CCN(C4CCOCC4)CC3)C(=O)[C@H](CC(C)C)N2C1=O` [ID-62, (3R,6S,9aS)-3,6-diisobutyl-1-((E)-3-(pyridin-2-yl)acryloyl)-8-(1-(tetrahydro-2H-pyran-4-yl)piperidin-4-yl)tetrahydropyrazino[2,1-c][1,2,4]oxadiazine-4,7(3H,6H)-dione], the half-inhibitory concentration (IC50) was 3400 nM. Consider `CC(C)C[C@H]1ON(C(=O)/C=C/c2ccccn2)[C@H]2CN(C3CCN(C4CCCCC4)CC3)C(=O)[C@H](CC(C)C)N2C1=O` [ID-63, (3R,6S,9aS)-8-(1-cyclohexylpiperidin-4-yl)-3,6-diisobutyl-1-((E)-3-(pyridin-2-yl)acryloyl)tetrahydropyrazino[2,1-c][1,2,4]oxadiazine-4,7(3H,6H)-dione], for which 1400 nM corresponded to half-maximal inhibition (IC50).

With `CC(C)C[C@H]1ON(C(=O)/C=C/c2nc3ccccc3s2)[C@H]2CN(C3CCOCC3)C(=O)[C@H](CC(C)C)N2C1=O` [ID-64, (3R,6S,9aS)-1-((E)-3-(benzo[d]thiazol-2-yl)acryloyl)-3,6-diisobutyl-8-(tetrahydro-2H-pyran-4-yl)tetrahydropyrazino[2,1-c][1,2,4]oxadiazine-4,7(3H,6H)-dione], the IC50 came to 880 nM. Compared with the last compound, the IC50 is about 1.6-fold lower. For the compound `CC(C)C[C@H]1ON(C(=O)/C=C/c2ccccn2)[C@H]2CN(C3CCCN(C)C3)C(=O)[C@H](CC(C)C)N2C1=O` (stereo partly drawn) [ID-65, (3R,6S,9aS)-3,6-diisobutyl-8-(1-methylpiperidin-3-yl)-1-((E)-3-(pyridin-2-yl)acryloyl)tetrahydropyrazino[2,1-c][1,2,4]oxadiazine-4,7(3H,6H)-dione], the midpoint of inhibition, the IC50, lay at 4700 nM. Further, where the note is “PANC-1, MTS, 6 days”, the inhibition at 10 µM was determined as 96.5%.

On to `CC(C)C[C@H]1ON(C(=O)/C=C/c2ccccn2)[C@H]2CN(C3CCN(C)CC3)C(=O)[C@H](Cc3ccccc3)N2C1=O` [ID-66, (3R,6S,9aS)-6-benzyl-3-isobutyl-8-(1-methylpiperidin-4-yl)-1-((E)-3-(pyridin-2-yl)acryloyl)tetrahydropyrazino[2,1-c][1,2,4]oxadiazine-4,7(3H,6H)-dione], for which the half-maximal inhibitory concentration (IC50) was found to be 5200 nM. The inhibition at 10 µM (PANC-1, MTS, 6 days) was 96.7%. For `CC(C)C[C@H]1ON(C(=O)/C=C/c2ccccn2)[C@H]2CN(C3CCCN(C)CC3)C(=O)[C@H](CC(C)C)N2C1=O` (stereo partly drawn) [ID-67, (3R,6S,9aS)-3,6-diisobutyl-8-(1-methylazepan-4-yl)-1-((E)-3-(pyridin-2-yl)acryloyl)tetrahydropyrazino[2,1-c][1,2,4]oxadiazine-4,7(3H,6H)-dione], the IC50 was 3300 nM. Where the note is “PANC-1, MTS, 6 days”, the inhibition at 10 µM amounted to 100%. `CC(C)C[C@H]1ON(C(=O)/C=C/c2ccccn2)[C@H]2CN(C3CCC(N)CC3)C(=O)[C@H](CC(C)C)N2C1=O` (stereo partly drawn) [ID-68, (3R,6S,9aS)-8-(4-aminocyclohexyl)-3,6-diisobutyl-1-((E)-3-(pyridin-2-yl)acryloyl)tetrahydropyrazino[2,1-c][1,2,4]oxadiazine-4,7(3H,6H)-dione] displayed an IC50 of 2800 nM. Take `CC(C)C[C@H]1ON(C(=O)/C=C/c2ccccn2)[C@H]2CN(C3CCC(N(C)C)CC3)C(=O)[C@H](CC(C)C)N2C1=O` (stereo partly drawn) [ID-69, (3R,6S,9aS)-8-(4-(dimethylamino)cyclohexyl)-3,6-diisobutyl-1-((E)-3-(pyridin-2-yl)acryloyl)tetrahydropyrazino[2,1-c][1,2,4]oxadiazine-4,7(3H,6H)-dione]: the midpoint of inhibition, the IC50, lay at 2800 nM.

In turn, `CC(C)C[C@H]1ON(C(=O)/C=C/c2ccccn2)[C@H]2CN(C3CC4CCC(C3)N4C)C(=O)[C@H](CC(C)C)N2C1=O` (stereo partly drawn) [ID-70, (3R,6S,9aS)-3,6-diisobutyl-8-(8-methyl-8-azabicyclo[3.2.1]octan-3-yl)-1-((E)-3-(pyridin-2-yl)acryloyl)tetrahydropyrazino[2,1-c][1,2,4]oxadiazine-4,7(3H,6H)-dione] showed an IC50 of 2500 nM. This IC50 and that of the compound before are within 1.5-fold of each other. Regarding `CC(C)C[C@H]1ON(C(=O)/C=C/c2ccc(C(F)(F)F)cn2)[C@H]2CN(C3CCN(C)CC3)C(=O)[C@H](CC(C)C)N2C1=O` [ID-71, (3R,6S,9aS)-3,6-diisobutyl-8-(1-methylpiperidin-4-yl)-1-((E)-3-(5-(trifluoromethyl)pyridin-2-yl)acryloyl)tetrahydropyrazino[2,1-c][1,2,4]oxadiazine-4,7(3H,6H)-dione], the inhibition at 2.5 µM (PANC-1, MTS, 6 days) was found to be 97.3%. `COc1ccc(/C=C/C(=O)N2O[C@H](CC(C)C)C(=O)N3[C@@H]2CN(C2CCN(C)CC2)C(=O)[C@@H]3CC(C)C)nc1` [ID-72, (3R,6S,9aS)-3,6-diisobutyl-1-((E)-3-(5-methoxypyridin-2-yl)acryloyl)-8-(1-methylpiperidin-4-yl)tetrahydropyrazino[2,1-c][1,2,4]oxadiazine-4,7(3H,6H)-dione]: the inhibition at 2.5 µM (PANC-1, MTS, 6 days) stood at 37%. With `CC(C)C[C@H]1ON(C(=O)/C=C/c2nc3ccccc3s2)[C@H]2CN(C3CCN(C(C)C)CC3)C(=O)[C@H](CC(C)(C)C)N2C1=O` [ID-73, (3R,6S,9aS)-1-((E)-3-(benzo[d]thiazol-2-yl)acryloyl)-3-isobutyl-8-(1-isopropylpiperidin-4-yl)-6-neopentyltetrahydropyrazino[2,1-c][1,2,4]oxadiazine-4,7(3H,6H)-dione], the IC50 worked out at 140 nM. Where the note is “PANC-1, MTS, 6 days”, the inhibition at 0.3125 µM was 88.1%. On to `CC(C)C[C@H]1ON(C(=O)/C=C/c2nc3ccccc3s2)[C@H]2CN(C3CCN(C)CC3)C(=O)[C@H](CCS(C)(=O)=O)N2C1=O` [ID-74, (3R,6S,9aS)-1-((E)-3-(benzo[d]thiazol-2-yl)acryloyl)-3-isobutyl-8-(1-methylpiperidin-4-yl)-6-(2-(methylsulfonyl)ethyl)tetrahydropyrazino[2,1-c][1,2,4]oxadiazine-4,7(3H,6H)-dione], for which, for the setting “PANC-1, MTS, 6 days”, the inhibition at 0.3125 µM amounted to 38.7%.

Regarding `CC(C)C[C@H]1ON(C(=O)/C=C/c2nc3ccccc3s2)[C@H]2CN(C3CCN(CCCN)CC3)C(=O)[C@H](CC(C)(C)C)N2C1=O` [ID-75, (3R,6S,9aS)-8-(1-(3-aminopropyl)piperidin-4-yl)-1-((E)-3-(benzo[d]thiazol-2-yl)acryloyl)-3-isobutyl-6-neopentyltetrahydropyrazino[2,1-c][1,2,4]oxadiazine-4,7(3H,6H)-dione], the IC50 was found to be 390 nM. For the same compound, the inhibition at 0.3125 µM (PANC-1, MTS, 6 days) is 19.9%. `CC(C)C[C@H]1ON(C(=O)/C=C/c2nc3ccccc3s2)[C@H]2CN(C3CCN(CCCC(=O)O)CC3)C(=O)[C@H](CC(C)(C)C)N2C1=O` [ID-76, 4-(4-((3R,6S,9aS)-1-((E)-3-(benzo[d]thiazol-2-yl)acryloyl)-3-isobutyl-6-neopentyl-4,7-dioxohexahydropyrazino[2,1-c][1,2,4]oxadiazin-8 (1H)-yl)piperidin-1-yl)butanoic acid] gave an IC50 of 1600 nM. As to `CC(C)C[C@H]1ON(C(=O)/C=C/c2nc3ccccc3s2)[C@H]2CN(C3CCN(CCOCCO)CC3)C(=O)[C@H](CC(C)(C)C)N2C1=O` [ID-77, (3R,6S,9aS)-1-((E)-3-(benzo[d]thiazol-2-yl)acryloyl)-8-(1-(2-(2-hydroxyethoxy)ethyl)piperidin-4-yl)-3-isobutyl-6-neopentyltetrahydropyrazino[2,1-c][1,2,4]oxadiazine-4,7(3H,6H)-dione], under “PANC-1, MTS, 6 days”, the inhibition at 0.3125 µM was determined as 55.2%. Take `CSc1nccc(/C=C/C(=O)N2O[C@H](CC(C)C)C(=O)N3[C@@H]2CN([C@H]2CCN(CCCCO)C2)C(=O)[C@@H]3CC(C)(C)C)n1` [ID-78, (3R,6S,9aS)-8-((S)-1-(4-hydroxybutyl)pyrrolidin-3-yl)-3-isobutyl-1-((E)-3-(2-(methylthio)pyrimidin-4-yl)acryloyl)-6-neopentyltetrahydropyrazino[2,1-c][1,2,4]oxadiazine-4,7(3H,6H)-dione]: the inhibition at 0.3125 µM (PANC-1, MTS, 6 days) came to 41.5%. The same measure, in the same setting: the same measure for `CC(C)C[C@H]1ON(C(=O)/C=C/c2nc3ccccc3s2)[C@H]2CN(C3CCN(CCCO)CC3)C(=O)[C@H](CC(C)(C)C)N2C1=O` [ID-79, (3R,6S,9aS)-1-((E)-3-(benzo[d]thiazol-2-yl)acryloyl)-8-(1-(3-hydroxypropyl)piperidin-4-yl)-3-isobutyl-6-neopentyltetrahydropyrazino[2,1-c][1,2,4]oxadiazine-4,7(3H,6H)-dione]: 72.2%.

Source of the values: patent publication US20230265104A1, “NOVEL HETEROCYCLIC COMPOUNDS” (PRISM BIOLAB CO., LTD., priority 2020, published 2023).
